In patent publication US20100168084A1, “Therapeutic compounds and related methods of use” (priority 2008, published 2010):

Molecular target: T1, sirtuin protein (Homo sapiens, UniProt Q96EB6)
T1 sequence (Q96EB6 2-747 limits assumed): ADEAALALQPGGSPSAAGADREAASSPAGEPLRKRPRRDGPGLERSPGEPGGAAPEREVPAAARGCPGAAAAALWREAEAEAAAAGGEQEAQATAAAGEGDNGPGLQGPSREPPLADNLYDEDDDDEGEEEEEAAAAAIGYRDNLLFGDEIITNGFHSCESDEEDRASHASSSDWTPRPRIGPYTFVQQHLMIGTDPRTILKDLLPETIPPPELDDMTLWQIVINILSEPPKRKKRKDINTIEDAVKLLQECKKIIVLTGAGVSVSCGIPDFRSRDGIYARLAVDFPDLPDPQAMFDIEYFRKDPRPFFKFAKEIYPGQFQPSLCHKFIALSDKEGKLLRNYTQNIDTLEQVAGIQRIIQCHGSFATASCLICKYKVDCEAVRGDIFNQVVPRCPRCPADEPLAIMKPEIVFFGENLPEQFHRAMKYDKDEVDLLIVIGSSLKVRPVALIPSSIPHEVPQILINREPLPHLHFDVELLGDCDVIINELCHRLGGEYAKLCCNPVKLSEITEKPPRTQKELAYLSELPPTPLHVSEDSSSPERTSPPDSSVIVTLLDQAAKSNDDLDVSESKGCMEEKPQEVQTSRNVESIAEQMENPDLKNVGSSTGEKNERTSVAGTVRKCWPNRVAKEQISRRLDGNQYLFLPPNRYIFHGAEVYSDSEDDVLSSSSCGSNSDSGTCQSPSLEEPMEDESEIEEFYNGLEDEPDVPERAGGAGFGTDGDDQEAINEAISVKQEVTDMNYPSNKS
Assay: MS assay (IC50 MS ASSAY / ED50 MS / FOLD ACTIVATION MS)
Type: biochemical
Set-up: scale not given here

[1] = Table 4, class symbols, legend not given
[2] = Table 4, class symbols A′, A, B, D, NA, legend not given
[3] = MS assay, class symbols A′, A, B, D, NA, legend not given

Structure (SMILES)	ED50 MS ASSAY (TABLE 4)	ED50 MS ASSAY (Table 4)	ED50 MS ASSAY [1]	ED50 MS ASSAY (class symbols, no key given)	ED50 MS ASSAY [2]	ED50 MS ASSAY [3]
COc1cc(C(=O)Nc2ccccc2-c2cn3cc(CN(C)C)sc3n2)cc(OC)c1OC [Compound 179]	A′	A′	A′	A′	–	–
COc1ccc(C(=O)Nc2cccc(-c3nc4cccnc4[nH]3)c2)c(OC)c1OC [Compound 181]	A′	A′	A′	A′	–	–
COc1cc(C)ccc1C(=O)Nc1cccc(-c2nc3cccnc3[nH]2)c1 [Compound 182]	A′	A′	A′	A′	–	–
COc1ccc(C(=O)Nc2cccc(-c3nc4ncccc4[nH]3)c2)c(OC)c1 [Compound 184]	A′	A′	A′	A′	–	–
COc1ccc(C(=O)Nc2cccc(-c3nc4cccnc4[nH]3)c2)cc1OC [Compound 185]	A′	A′	A′	A′	–	–
COc1ccc(C(=O)Nc2ccc(-c3cc4cccnc4o3)cc2)c(OC)c1 [Compound 190]	A′	A′	A′	A′	–	–
COc1cc(C)ccc1C(=O)Nc1cccc(-c2nc3ncccc3s2)c1 [Compound 199]	A′	A′	A′	A′	–	–
CN(C)c1cccc(C(=O)Nc2cccc(-c3nc4ncccc4s3)c2)c1 [Compound 200]	A′	A′	A′	A′	–	–
COc1ccc(C(=O)Nc2cccc(-c3nc4ncccc4s3)c2)c(OC)c1 [Compound 202]	A′	A′	A′	A′	–	–
COc1ccc(C(=O)Nc2cccc(-c3nc4ccccc4[nH]3)c2)c(OC)c1 [Compound 211]	A′	A′	A′	A′	–	–
COc1ccc(C(=O)Nc2cccc(-c3nc4cccnc4s3)c2)cc1 [Compound 216]	A′	A′	A′	A′	–	–
COc1cc(C(=O)Nc2cccc(-c3nc4cccnc4s3)c2)cc(OC)c1OC [Compound 217]	A′	A′	A′	A′	–	–
COc1cc(C(=O)Nc2cccc(-c3cn4cccnc4n3)c2)cc(OC)c1OC [Compound 218]	–	A′	–	A′	A′	–
COc1cc(C(=O)Nc2cccc(-c3nc4ccccc4[nH]3)n2)cc(OC)c1OC [Compound 259]	–	A′	–	–	A′	A′
COc1ccc(C(=O)Nc2cccc(-c3nc4ccccc4[nH]3)n2)cc1OC [Compound 260]	–	A′	–	–	A′	A′
COc1ccc(C(=O)Nc2ccc(-c3nc4ccccc4[nH]3)cc2)c(OC)c1 [Compound 262]	–	A′	–	–	A′	A′
CN(C)c1cccc(C(=O)Nc2ccccc2-c2cn3ccccc3n2)c1 [Compound 268]	–	A′	–	–	A′	A′
COc1cc(C(=O)Nc2ccccc2-c2cn3cc(CN4CCNCC4)sc3n2)cc(OC)c1OC [Compound 271]	–	A′	–	–	A′	A′
COc1ccc(C(=O)Nc2ccc(-c3nc4ccccc4[nH]3)cc2)cc1OC [Compound 294]	–	A′	–	–	A′	A′
CN(C)c1cccc(C(=O)Nc2cccc(-c3nc4cnccc4s3)c2)c1 [Compound 402]	–	A′	–	–	A′	A′
CN(C)c1ccc(C(=O)Nc2cccc(-c3nc4cnccc4s3)c2)cc1 [Compound 403]	–	A′	–	–	A′	A′

More lines, now with the values ahead:

ED50 MS ASSAY (TABLE 4)	ED50 MS ASSAY (Table 4)	ED50 MS ASSAY [1]	ED50 MS ASSAY (class symbols, no key given)	ED50 MS ASSAY [2]	ED50 MS ASSAY [3]	Structure (SMILES)
A′	A′	A′	A′	–	–	COc1ccc(C(=O)Nc2cccc(-c3cc4cccnc4o3)c2)c(OC)c1 [Compound 191]
A′	A′	A′	A′	–	–	COc1ccc(C(=O)Nc2ccccc2-c2cn3ccsc3n2)cc1OC [Compound 203]
A′	A′	A′	A′	–	–	COc1cc(C(=O)Nc2ccccc2-c2cn3ccsc3n2)cc(OC)c1OC [Compound 204]
A′	A′	A′	A′	–	–	COc1ccc(C(=O)Nc2cccc(-c3nc4cccnc4s3)c2)c(OC)c1 [Compound 213]
A′	A′	A′	A′	–	–	COc1cc(OC)cc(C(=O)Nc2cccc(-c3nc4cccnc4s3)c2)c1 [Compound 215]
–	A′	–	–	A′	A′	COc1ccc(C(=O)Nc2ccccc2-c2cc3ccccc3[nH]2)cc1OC [Compound 254]
–	A′	–	–	A′	A′	COc1cc(C(=O)Nc2ccccc2-c2cc3ccccc3[nH]2)cc(OC)c1OC [Compound 255]
–	A′	–	–	A′	A′	COc1ccc(C(=O)Nc2ccccc2-c2cn3ccccc3n2)cc1OC [Compound 266]
–	A′	–	–	A′	A′	COc1cc(C(=O)Nc2ccccc2-c2cn3ccccc3n2)cc(OC)c1OC [Compound 267]
–	A′	–	–	A′	A′	COc1ccc(C(=O)Nc2cccc(-c3nc4cnccc4s3)c2)c(OC)c1 [Compound 272]
–	A′	–	–	A′	A′	COc1ccc(C(=O)Nc2ncccc2-c2nc3ccccc3[nH]2)cc1OC [Compound 276]
–	A′	–	–	A′	A′	COc1cc(C(=O)Nc2ccccc2-c2nc3ccccc3[nH]2)cc(OC)c1OC [Compound 293]
–	A′	–	–	A′	A′	COc1ccc(C(=O)Nc2ccccc2-c2nc3cnccc3s2)c(OC)c1 [Compound 317]
–	A′	–	–	A′	A′	COc1cc(C(=O)Nc2ccccc2-c2nc3cnccc3s2)cc(OC)c1OC [Compound 319]
–	A′	–	–	A′	A′	CN(C)c1ccc(C(=O)Nc2ccccc2-c2nc3cnccc3s2)cc1 [Compound 320]
–	A′	–	–	A′	A′	CN(C)c1cccc(C(=O)Nc2ccccc2-c2nc3cnccc3s2)c1 [Compound 321]
–	A′	–	–	A′	A′	COc1cc(C(=O)Nc2ccc(-c3nc4ccncc4o3)cc2)cc(OC)c1OC [Compound 341]
–	A′	–	–	A′	A′	COc1cc(C(=O)Nc2ccc(-c3nc4cnccc4o3)cc2)cc(OC)c1OC [Compound 347]
–	A′	–	–	A′	A′	COc1cc(OC)cc(C(=O)Nc2ccccc2-c2nc3cnccc3o2)c1 [Compound 404]
–	A′	–	–	A′	A′	COc1cc(C(=O)Nc2ccccc2-c2nc3cnccc3o2)cc(OC)c1OC [Compound 405]
–	A′	–	–	A′	A′	CN(C)c1cccc(C(=O)Nc2ccccc2-c2nc3cnccc3o2)c1 [Compound 406]
–	A′	–	–	A′	A′	CN(C)c1ccc(C(=O)Nc2ccccc2-c2nc3cnccc3o2)cc1 [Compound 407]
–	A′	–	–	A′	A′	COc1ccc(C(=O)Nc2ccc(-c3nc4cnccc4o3)s2)cc1OC [Compound 423]
–	A′	–	–	A′	A′	COc1cc(C(=O)Nc2ccc(-c3nc4cnccc4o3)s2)cc(OC)c1OC [Compound 426]
–	A′	–	–	A′	A′	CN(C)c1cccc(C(=O)Nc2ccc(-c3nc4cnccc4o3)s2)c1 [Compound 427]
